{"source": "patent US10633419B2", "about": "“Immunomodulators” (BRISTOL-MYERS SQUIBB COMPANY, priority 2014, dated 2020)", "note": "Starred links: 1 amine or outer side, 2 acyl side, 3 side chain; linkers in the order of their positions; H or OH if unused. Positions of bridges follow the written chain, without caps; N, C: chain ends. Non-standard residues stand in square brackets, D forms with d. Residues, ends and D or L forms follow the SMILES beside them. *: point of attachment. εLys(α-Octadecanedioyl) = O=C(O)CCCCCCCCCCCCCCCCC(=O)N[C@@H](CCCCN*)C(=O)O; X6 = O=C(O)CCCCCCCCCCCCCCCCC(=O)N[C@@H](CCC(=O)NCCCOCCOCCOCCCN*)C(=O)O; X11 = O=C(O)CCCCCCCCCCCCC(=O)N[C@@H](CCC(=O)NCCCOCCOCCOCCCN*)C(=O)O; Trp(1-CH2COOH) = N[C@@H](Cc1cn(CC(=O)O)c2ccccc12)C(=O)O; X9 = O=C(O)CCCCCCCCCCCCCCCCC(=O)N[C@@H](CCN*)C(=O)O; Phe(4-F) = N[C@@H](Cc1ccc(F)cc1)C(=O)O; d(cisHyp) = O=C(O)[C@H]1C[C@@H](O)CN1; βAsp = O=C(O)[C@H](CC(=O)[*:2])N[*:1]; PEG6 = NCCOCCOCCOCCOCCOCCOCCC(=O)O; Hyp = O=C(O)[C@@H]1C[C@@H](O)CN1; NMeNle = CCCC[C@H](NC)C(=O)O; X20 = O=C(O)CCCCCCCCCCCCCN*; Pip = O=C(O)[C@@H]1CCCCN1; NMeA = CN[C@@H](C)C(=O)O; Aun = NCCCCCCCCCCC(=O)O; Dab = NCC[C@H](N)C(=O)O; Dap = NC[C@H](N)C(=O)O; Ava = NCCCCC(=O)O; βAla = NCCC(=O)O"}
{"target": "T1, PD-L1 (Homo sapiens, UniProt Q9NZQ7)", "T1 construct": "hPDL1(19-239)-TVMV-His; made in house; host or cells: HEK293T", "T1 sequence (Q9NZQ7 with tags, fused parts or gaps)": "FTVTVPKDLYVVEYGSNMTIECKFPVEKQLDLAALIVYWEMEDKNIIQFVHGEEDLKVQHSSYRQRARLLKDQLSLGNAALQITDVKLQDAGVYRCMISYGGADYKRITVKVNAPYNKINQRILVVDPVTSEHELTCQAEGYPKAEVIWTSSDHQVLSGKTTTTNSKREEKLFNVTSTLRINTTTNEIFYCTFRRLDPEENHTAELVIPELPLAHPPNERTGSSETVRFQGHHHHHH", "assay": "PD-1/PD-L1 Homogenous Time-Resolved Fluorescence (HTRF) binding assay (PD-1-Ig/PD-L1-His)", "details": "inhibition of PD-1-Ig binding to PD-L1-TVMV-His; value given as range class; read-out: HTRF IC50", "in_short": "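Inhibitors pre-incubated 15 min with PD-L1-His (10 nM final), then PD-1-Ig (20 nM final) added for 15 min in dPBS/0.1% BSA/0.05% Tween-20. Eu-cryptate anti-Ig (1 nM) and APC anti-His (20 nM) added, 30 min equilibration, 665/620 nm HTRF ratio read.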", "units": {"IC50": "nM"}}
{"smiles": "CCCC[C@H]1C(=O)N(C)[C@@H](CCCC)C(=O)N[C@@H](CC(C)C)C(=O)N[C@H](C(=O)NCC(=O)N[C@@H](CC(=O)NCCCOCCOCCOCCCNC(=O)CC[C@H](NC(=O)CCCCCCCCCCCCCCCCC(=O)O)C(=O)O)C(=O)O)CSCC(=O)N[C@@H](Cc2ccc(F)cc2)C(=O)N2CCCC[C@H]2C(=O)N[C@@H](CC(=O)O)C(=O)N2CCC[C@H]2C(=O)N[C@@H](CN)C(=O)N[C@@H](CCC(=O)O)C(=O)N2C[C@H](O)C[C@H]2C(=O)N[C@@H](Cc2c[nH]c3ccccc23)C(=O)N[C@@H](CCN)C(=O)N[C@@H](Cc2cn(CC(=O)O)c3ccccc23)C(=O)N1C", "note": "[Example 11266] ({CH2CO}-[Phe(4-F)][Pip]DP[Dap]E[Hyp]W[Dab][Trp(1-CH2COOH)][NMeNle][NMeNle]LCGD(X6)-OH; thioether N-14)", "IC50": "0.3 to 9.9"}
{"smiles": "CCCC[C@H]1C(=O)N(C)[C@@H](CCCC)C(=O)N[C@@H](CC(C)C)C(=O)N[C@H](C(=O)NCC(=O)N[C@@H](CC(=O)NCCC(=O)NCC[C@H](NC(=O)CCCCCCCCCCCCCCCCC(=O)O)C(=O)O)C(=O)O)CSCC(=O)N[C@@H](Cc2ccc(O)cc2)C(=O)N2CCCC[C@H]2C(=O)N[C@@H](CC(N)=O)C(=O)N2CCC[C@H]2C(=O)N[C@@H](CN)C(=O)N[C@@H](CC(C)C)C(=O)N2C[C@H](O)C[C@H]2C(=O)N[C@@H](Cc2c[nH]c3ccccc23)C(=O)N[C@@H](CCN)C(=O)N[C@@H](Cc2cn(CC(=O)O)c3ccccc23)C(=O)N1C", "note": "[Example 13160] ({CH2CO}-Y[Pip]NP[Dap]L[Hyp]W[Dab][Trp(1-CH2COOH)][NMeNle][NMeNle]LCG[βAsp][βAla]-X9; thioether N-14)", "IC50": "0.3 to 9.9"}
{"smiles": "CCCC[C@H]1C(=O)N(C)[C@@H](CCCC)C(=O)N[C@@H](CC(C)C)C(=O)N[C@H](C(=O)NCC(=O)N[C@@H](CCC(=O)NCCCC[C@H](NC(=O)CCCCCCCCCCCCCCCCC(=O)O)C(=O)O)C(=O)O)CSCC(=O)N[C@@H](Cc2ccc(O)cc2)C(=O)N(C)[C@@H](C)C(=O)N[C@@H](CC(N)=O)C(=O)N2CCC[C@H]2C(=O)N[C@@H](CN)C(=O)N[C@@H](CC(C)C)C(=O)N2C[C@H](O)C[C@H]2C(=O)N[C@@H](Cc2c[nH]c3ccccc23)C(=O)N[C@@H](CCN)C(=O)N[C@@H](Cc2cn(CC(=O)O)c3ccccc23)C(=O)N1C", "note": "[Example 11177] ({CH2CO}-Y[NMeA]NP[Dap]L[Hyp]W[Dab][Trp(1-CH2COOH)][NMeNle][NMeNle]LCGE(εLys(α-Octadecanedioyl))-OH; thioether N-14)", "IC50": "100 to 1600"}
{"smiles": "CCCC[C@H]1C(=O)N(C)[C@@H](CCCC)C(=O)N[C@@H](CCC(=O)O)C(=O)N[C@H](C(=O)NCC(=O)N[C@@H](Cc2cn(CC[C@H](NC(=O)CCCCCCCCCCCCCCC(=O)O)C(=O)O)nn2)C(=O)NCC(N)=O)CSCC(=O)N[C@@H](Cc2ccc(O)cc2)C(=O)N(C)[C@@H](C)C(=O)N[C@@H](CC(=O)O)C(=O)N2CCC[C@H]2C(=O)N[C@@H](Cc2c[nH]cn2)C(=O)N[C@@H](CCCCN)C(=O)N2C[C@H](O)C[C@H]2C(=O)N[C@@H](Cc2c[nH]c3ccccc23)C(=O)N[C@@H](CCCCN)C(=O)N[C@@H](Cc2c[nH]c3ccccc23)C(=O)N1C", "note": "[Example 14064]", "IC50": "0.3 to 9.9"}
{"smiles": "CCCC[C@H]1C(=O)N(C)[C@@H](CCCC)C(=O)N[C@@H](CC(C)C)C(=O)N[C@H](C(=O)N[C@@H](CC(=O)O)C(=O)N[C@@H](CCC(=O)NCCCOCCOCCOCCCNC(=O)CC[C@H](NC(=O)CCCCCCCCCCCCC(=O)O)C(=O)O)C(=O)O)CSCC(=O)N[C@@H](Cc2ccc(O)cc2)C(=O)N(C)[C@@H](C)C(=O)N[C@@H](CC(N)=O)C(=O)N2CCC[C@H]2C(=O)N[C@@H](CN)C(=O)N[C@@H](CC(C)C)C(=O)N2C[C@H](O)C[C@H]2C(=O)N[C@@H](Cc2c[nH]c3ccccc23)C(=O)N[C@@H](CCN)C(=O)N[C@@H](Cc2cn(CC(=O)O)c3ccccc23)C(=O)N1C", "note": "[Example 11261] ({CH2CO}-Y[NMeA]NP[Dap]L[Hyp]W[Dab][Trp(1-CH2COOH)][NMeNle][NMeNle]LCDE(X11)-OH; thioether N-14)", "IC50": "0.3 to 9.9"}
{"smiles": "CCCC[C@H]1C(=O)N(C)[C@@H](CCCC)C(=O)N[C@@H](CC(C)C)C(=O)N[C@H](C(=O)NCC(=O)N[C@@H](CC(=O)NCCCCC(=O)NCC[C@H](NC(=O)CCCCCCCCCCCCCCCCC(=O)O)C(=O)O)C(=O)O)CSCC(=O)N[C@@H](Cc2ccc(O)cc2)C(=O)N2CCCC[C@H]2C(=O)N[C@@H](CC(N)=O)C(=O)N2CCC[C@H]2C(=O)N[C@@H](CN)C(=O)N[C@@H](CC(C)C)C(=O)N2C[C@H](O)C[C@H]2C(=O)N[C@@H](Cc2c[nH]c3ccccc23)C(=O)N[C@@H](CCN)C(=O)N[C@@H](Cc2cn(CC(=O)O)c3ccccc23)C(=O)N1C", "note": "[Example 13164] ({CH2CO}-Y[Pip]NP[Dap]L[Hyp]W[Dab][Trp(1-CH2COOH)][NMeNle][NMeNle]LCG[βAsp][Ava]-X9; thioether N-14)", "IC50": "0.3 to 9.9"}
{"smiles": "CCCC[C@H]1C(=O)N(C)[C@@H](CCCC)C(=O)N[C@@H](CC(C)C)C(=O)N[C@H](C(=O)NCC(=O)NCC(=O)N[C@@H](CC(=O)O)C(=O)NCCCCCCCCCCCCCC(=O)O)CSCC(=O)N[C@@H](Cc2ccc(O)cc2)C(=O)N(C)[C@@H](C)C(=O)N[C@@H](CC(N)=O)C(=O)N2CCC[C@H]2C(=O)N[C@@H](CN)C(=O)N[C@@H](CC(C)C)C(=O)N2C[C@H](O)C[C@@H]2C(=O)N[C@@H](Cc2c[nH]c3ccccc23)C(=O)N[C@@H](CCN)C(=O)N[C@@H](Cc2cn(CC(=O)O)c3ccccc23)C(=O)N1C", "note": "[Example 11201] ({CH2CO}-Y[NMeA]NP[Dap]L[d(cisHyp)]W[Dab][Trp(1-CH2COOH)][NMeNle][NMeNle]LCGGD-X20; thioether N-14)", "IC50": "10 to 99"}
{"smiles": "CCCC[C@H]1C(=O)N(C)[C@@H](CCCC)C(=O)N[C@@H](CC(C)C)C(=O)N[C@H](C(=O)NCC(=O)NCC(=O)NCC(=O)NCCCCCCCCCCC(=O)O)CSCC(=O)N[C@@H](Cc2ccc(O)cc2)C(=O)N(C)[C@@H](C)C(=O)N[C@@H](CC(N)=O)C(=O)N2CCC[C@H]2C(=O)N[C@@H](CN)C(=O)N[C@@H](CCC(=O)O)C(=O)N2C[C@H](O)C[C@H]2C(=O)N[C@@H](Cc2c[nH]c3ccccc23)C(=O)N[C@@H](CCN)C(=O)N[C@@H](Cc2cn(CC(=O)O)c3ccccc23)C(=O)N1C", "note": "[Example 11093] ({CH2CO}-Y[NMeA]NP[Dap]E[Hyp]W[Dab][Trp(1-CH2COOH)][NMeNle][NMeNle]LCGGG[Aun]-OH; thioether N-14)", "IC50": "10 to 99"}
{"smiles": "CCCC[C@H]1C(=O)N(C)[C@@H](CCCC)C(=O)N[C@@H](CC(C)C)C(=O)N[C@H](C(=O)NCCOCCOCCOCCOCCOCCOCCC(=O)O)CSCC(=O)N[C@@H](Cc2ccc(O)cc2)C(=O)N(C)[C@@H](C)C(=O)N[C@@H](CC(N)=O)C(=O)N2CCC[C@H]2C(=O)N[C@@H](CO)C(=O)N[C@@H](CCC(N)=O)C(=O)N2C[C@H](O)C[C@@H]2C(=O)N[C@@H](Cc2c[nH]c3ccccc23)C(=O)N[C@@H](CN)C(=O)N[C@@H](Cc2cn(CC(=O)O)c3ccccc23)C(=O)N1C", "note": "[Example 11046] ({CH2CO}-Y[NMeA]NPSQ[d(cisHyp)]W[Dap][Trp(1-CH2COOH)][NMeNle][NMeNle]LC[PEG6]-OH; thioether N-14)", "IC50": "10 to 99"}
